In patent publication US12344611B2, “Bridged cycloformylpyridine derivatives and uses thereof” (BroadenBio Co., Ltd., priority 2019, dated 2025):

Columns and labels:
FGFR4 = FGFR4 (Homo sapiens, UniProt P22455); assay: In vitro biochemical kinase analysis of FGFR4 (HTRF KinEASE-TK); details: HTRF kinase assay
Protocol: In Vitro Biochemical Kinase Analysis of FGFR4
FGFR4 protein kinase detection kit was purchased from Cisbio (HTRF KinEASE-TK kit). Prepare 1× kinase reaction buffer. Transfer 10 nL of a diluted compound to each well of a reaction plate (784075, Greiner) with an Echo 550, and seal the plate with sealing film. The reaction plate was centrifuged at 1000 g for 1 minute. Prepare 2×FGFR4 using 1× kinase reaction buffer, add 5 μL of kinase to each well of the reaction plate, seal the plate, centrifuge at 1000 g for 30 seconds, and incubate it at room temperature for 10 minutes. Prepare a mixture of 2×TK-substrate-biotin and ATP using 1× kinase reaction buffer, add 5 μL of TK-substrate-biotin/ATP mixture to the reaction plate, seal the plate with sealing film, centrifuge at 1000 g for 30 seconds, and react at room temperature for 40 minutes. Prepare 2×Sa-XL 665 and TK-antibody-Cryptate mixture using HTRF detection buffer, add 10 μL Sa-XL 665 and TK-antibody-Cryptate mixture to each well, centrifuge at 1000 g for 30 seconds, and react at room temperature for 1 hour. Envision 2104 read fluorescence signals at 615 nm (Cryptate) and at 665 nm (XL665). IC50 of the compound was calculated using the GraphPad nonlinear fitting formula.

Hep 3B hepatoma cells = assay: In vitro cell proliferation assay (CellTiter-Glo, CTG), Hep 3B; assay type: cell-based, human; details: Hep 3B cells
Protocol: (§1) In Vitro Cell Proliferation Assay of FGFR4 (CellTiter-Glo Luminescent Cell Viability Assay, CTG Assay)
(§2) Hep 3B hepatoma cells were purchased from Cell Resource Center of Peking Union College, and HuH-7 hepatoma cells were purchased from Shanghai Biological Technology Co., Ltd. enzyme research. The cells were prepared at a concentration of 3×10^4/mL, which was then added with 100 μL to each well of a 96-well transparent flat-bottom black-walled plate to make 3000 cells per well. Incubate overnight at 37° C. in 5% CO2 incubator. Dilute a compound and add it to the wells having the cells, then add cell culture medium to 200 μL per well. Put in CO2 incubator for incubation. After 96 hours, 100 μL of culture medium was removed from each well, 100 μL of CTG was added, and the 96-well plate was placed on a shaker for 10 minutes, and placed in the shade at room temperature for 45 minutes. Data was read out by SoftMax Pro i3X Microplate Reader of MD, analyzed by the software GraphPad Prism 5.0, and S-shaped dose-response curve was drawn, then the EC50 values were calculated.

HuH-7 hepatoma cells = assay: In vitro cell proliferation assay (CellTiter-Glo, CTG), HuH-7; assay type: cell-based; details: HuH-7 cells
Protocol: as §1, §2

Sequence of FGFR4 (P22455 22-802): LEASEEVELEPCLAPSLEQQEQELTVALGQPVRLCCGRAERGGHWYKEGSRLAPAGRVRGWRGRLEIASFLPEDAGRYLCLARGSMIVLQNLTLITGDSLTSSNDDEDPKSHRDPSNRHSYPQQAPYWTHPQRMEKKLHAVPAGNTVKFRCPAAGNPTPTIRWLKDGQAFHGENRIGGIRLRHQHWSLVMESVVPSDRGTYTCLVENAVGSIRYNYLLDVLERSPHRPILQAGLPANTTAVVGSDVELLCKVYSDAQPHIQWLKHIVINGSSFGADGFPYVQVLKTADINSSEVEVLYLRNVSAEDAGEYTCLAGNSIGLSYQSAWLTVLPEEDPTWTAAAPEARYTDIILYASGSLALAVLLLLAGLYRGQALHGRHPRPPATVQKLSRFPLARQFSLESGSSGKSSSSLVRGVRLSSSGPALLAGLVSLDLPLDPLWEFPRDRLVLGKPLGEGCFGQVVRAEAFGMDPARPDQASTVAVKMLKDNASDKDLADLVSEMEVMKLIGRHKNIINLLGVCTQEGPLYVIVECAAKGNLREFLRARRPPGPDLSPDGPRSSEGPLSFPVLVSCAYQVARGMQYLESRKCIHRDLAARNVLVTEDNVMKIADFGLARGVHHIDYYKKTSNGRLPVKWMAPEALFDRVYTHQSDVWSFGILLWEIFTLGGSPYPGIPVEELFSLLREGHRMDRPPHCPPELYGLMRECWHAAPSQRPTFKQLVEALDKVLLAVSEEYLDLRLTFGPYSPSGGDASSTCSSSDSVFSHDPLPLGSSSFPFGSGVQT

| SMILES | IC50 (FGFR4) [nM] | EC50 (Hep 3B hepatoma cells; Homo sapiens, Hep3B, 96 h) [nM] | EC50 (HuH-7 hepatoma cells; Homo sapiens, Huh-7, 96 h) [nM] | EC50 (Hep 3B hepatoma cells; 96 hours) [nM] | EC50 (HuH-7 hepatoma cells; 96 hours) [nM] |
| --- | --- | --- | --- | --- | --- |
| CN1CCN(Cc2cc3c(nc2C=O)N(C(=O)Nc2cc(NC4CCOC4)c(C#N)cn2)C2CC3(F)C2)C(=O)C1 (stereo not shown) [Compound 10, N-(5-cyano-4-((tetrahydrofuran-3-yl)amino)pyridin-2-yl)-4-fluoro-7-formyl-6-((4-methyl-2-oxopiperazin-1-yl)methyl)-3,4-dihydro-2,4-methylene-1,8-naphthyridine-1(2H)-carboxamide] | 3.8 | 10 | 20 |  |  |
| COC1CCCC1Nc1cc(NC(=O)N2c3nc(C=O)c(CN4CCN(C)CC4=O)cc3C3(F)CC2C3)ncc1C#N (single isomer, unassigned) [Compound 11-P2, N-(5-cyano-4-(((trans)-2-methoxycyclopentyl)amino)pyridin-2-yl)-4-fluoro-7-formyl-64(4-methyl-2-oxopiperazin-1-yl)methyl)-3,4-dihydro-2,4-methylene-1,8-naphthyridine-1(2H)-carboxamide] | 9.8 |  |  | 32.1 | 73.1 |
| COCCNc1cc(NC(=O)N2c3nc(C=O)c(CN4CCOCC4=O)cc3C3(F)CC2C3)ncc1C#N [Compound 13] | 6.9 | 12.6 | 74 |  |  |
| COCCNc1cc(NC(=O)N2c3nc(C=O)c(CN4CCN(C)CC4)cc3C3(F)CC2C3)ncc1C#N [Compound 7] | 5.1 | 669 | > 1000 |  |  |
| COCCNc1cc(NC(=O)N2c3nc(C=O)ccc3C3(N4CCN(C)CC4=O)CC2C3)ncc1C#N [Compound 43, N-(5-cyano-4-((2-methoxyethyl)amino)pyridin-2-yl)-7-formyl-4-(4-methyl-2-oxopiperazin-1-yl)-3,4-dihydro-2,4-methylene-1,8-naphthyridine-1(2H)-carboxamide] | 3.1 | 6.5 |  |  |  |
| N#Cc1cnc(NC(=O)N2c3nc(C=O)ccc3C3(F)CC2C3)cc1NC1CNC1 [Compound 23, N-(5-cyano-4-(azetidin-3-ylamino)pyridin-2-yl)-7-formyl-4-fluoro-3,4-dihydro-2,4-methylene-1,8-naphthyridine-1(2H)-carboxamide] |  | 102 |  |  |  |
| CCC(=O)NC12CC(C1)N(C(=O)Nc1cc(NCCOC)c(C#N)cn1)c1nc(C=O)ccc12 [Compound 37, N-(5-cyano-4-((2-methoxyethyl)amino)pyridin-2-yl)-4-propionamido-7-formyl-3,4-dihydro-2,4-methylene-1,8-naphthyridine-1(2H)-carboxamide] | 2.5 | 6.4 |  |  |  |
| COCCNc1cc(NC(=O)N2CCCc3cc(CN4CCN(C)CC4=O)c(C=O)nc32)ncc1C#N [Positive Control Compound, N-(5-cyano-4-((2-methoxyethyl)amino)pyridin-2-yl)-7-formyl-6-((4-methyl-2-oxopiperazin-1-yl)methyl)-3,4-dihydro-1,8-naphthyridine-1(2H)-carboxamide, reference compound] |  | 15 | 52 |  |  |
| COCCNc1cc(NC(=O)N2c3nc(C=O)ccc3C3(N(C)C(=O)c4cnn(C)c4)CC2C3)ncc1C#N [Compound 42] | 3.2 | 7.2 |  |  |  |
| COCCNc1cc(NC(=O)N2c3nc(C=O)ccc3C3(NC(=O)CO)CC2C3)ncc1C#N [Compound 47, N-(5-cyano-4-((2-methoxyethyl)amino)pyridin-2-yl)-4-(2-hydroxyacetamido)-7-formyl-3,4-dihydro-2,4-methylene-1,8-naphthyridine-1(2H)-carboxamide] | 2.8 | 17.8 |  |  |  |

Further molecules by falling IC50 (FGFR4), results first:

| IC50 (FGFR4) [nM] | EC50 (Hep 3B hepatoma cells; Homo sapiens, Hep3B, 96 h) [nM] | EC50 (HuH-7 hepatoma cells; Homo sapiens, Huh-7, 96 h) [nM] | EC50 (Hep 3B hepatoma cells; 96 hours) [nM] | EC50 (HuH-7 hepatoma cells; 96 hours) [nM] | SMILES |
| --- | --- | --- | --- | --- | --- |
| 2.5 | 5.6 | 15.1 |  |  | COCCNc1cc(NC(=O)N2c3nc(C=O)c(CN4CCN(C)CC4=O)cc3C3CC2C3)ncc1C#N [Compound 18, N-(5-cyano-4-((2-methoxyethyl)amino)pyridin-2-yl)-7-formyl-6-((4-methyl-2-oxopiperazin-1-yl)methyl)-3,4-dihydro-2,4-methylene-1,8-naphthyridine-1(2H)-carboxamide] |
| 2.5 | 12.3 |  |  |  | COCCNc1cc(NC(=O)N2c3nc(C=O)ccc3C3(NC(=O)N4CCOCC4)CC2C3)ncc1C#N [Compound 44, N-(5-cyano-4-((2-methoxyethyl)amino)pyridin-2-yl)-7-formyl-4-(morpholine-4-carboxamido)-3,4-dihydro-2,4-methylene-1,8-naphthyridine-1(2H)-carboxamide] |
| 1.8 | 27 | 49 |  |  | COCCNc1cc(NC(=O)N2c3nc(C=O)c(CN4CCN(C)CC4=O)cc3C3(O)CC2C3)ncc1C#N [Compound 5, N-(5-cyano-4-((2-methoxyethyl)amino)pyridin-2-yl)-7-formyl-4-hydroxy-6-((4-methyl-2-oxopiperazin-1-yl)methyl)-3,4-dihydro-2,4-methylene-1,8-naphthyridine-1(2H)-carboxamide] |
| 1.8 | 11.4 |  |  |  | COCCNc1cc(NC(=O)N2c3nc(C=O)ccc3C3(OCC(=O)N4CCOCC4)CC2C3)ncc1C#N [Compound 45, N-(5-cyano-4-((2-methoxyethyl)amino)pyridin-2-yl)-4-(2-(morpholin-4-yl)-2-oxoethoxy)-7-formyl-3,4-dihydro-2,4-methylene-1,8-naphthyridine-1(2H)-carboxamide] |
| 1.6 | 7.8 | 10 |  |  | COCCNc1cc(NC(=O)N2c3nc(C=O)ccc3C3(OCCN4CCOCC4)CC2C3)ncc1C#N [Compound 39] |
| 1.6 |  |  |  |  | COCCNc1cc(NC(=O)N2c3nc(C=O)ccc3C3(NC(=O)c4ccccn4)CC2C3)ncc1C#N [Compound 48, N-(5-cyano-4-((2-methoxyethyl)amino)pyridin-2-yl)-4-(pyridine-2-carboxamido)-7-formyl-3,4-dihydro-2,4-methylene-1,8-naphthyridine-1(2H)-carboxamide] |
| 1.6 |  |  |  |  | COCCNc1cc(NC(=O)N2c3nc(C=O)ccc3C3(NC(=O)c4ccc[nH]4)CC2C3)ncc1C#N [Compound 49] |
| 1.4 | 6.7 | 9.7 |  |  | COCCNc1cc(NC(=O)N2c3nc(C=O)c(CN4CCOCC4=O)cc3C3CC2C3)ncc1C#N [Compound 27, N-(5-cyano-4-((2-methoxyethyl)amino)pyridin-2-yl)-7-formyl-6-((3-oxomorpholinyl)methyl)-3,4-dihydro-2,4-methylene-1,8-naphthyridine-1(2H)-carboxamide] |
| 1.4 |  | 0.8 |  |  | COCCNc1cc(NC(=O)N2c3nc(C=O)ccc3C3(NC(=O)CN(C)C)CC2C3)ncc1C#N [Compound 30, N-(5-cyano-4-((2-methoxyethyl)amino)pyridin-2-yl)-4-(2-(dimethylamino)acetamido)-7-formyl-3,4-dihydro-2,4-methylene-1,8-naphthyridine-1(2H)-carboxamide] |
| 1.2 | 10.7 |  |  |  | COCCNc1cc(NC(=O)N2c3nc(C=O)ccc3C3(N(C)C4CCOC4)CC2C3)ncc1C#N (stereo not shown) [Compound 34, N-(5-cyano-4-((2-methoxyethyl)amino)pyridin-2-yl)-4-(methyl(tetrahydrofuran-3-yl)amino)-7-formyl-3,4-dihydro-2,4-methylene-1,8-naphthyridine-1(2H)-carboxamide] |
| 1.1 | 2.2 |  |  |  | COCCNc1cc(NC(=O)N2c3nc(C=O)ccc3C3(OCCN4CCCC4)CC2C3)ncc1C#N [Compound 35, N-(5-cyano-4-((2-methoxyethyl)amino)pyridin-2-yl)-4-(2-(pyrrolidin-1-yl)ethoxy)-7-formyl-3,4-dihydro-2,4-methylene-1,8-naphthyridine-1(2H)-carboxamide] |
| 0.7 |  | 0.6 |  |  | CN1CCN(Cc2cc3c(nc2C=O)N(C(=O)Nc2cc(NC4CCCC4O)c(C#N)cn2)C2CC3(F)C2)C(=O)C1 (stereo not drawn) [Compound 17, N-(5-cyano-4-(((trans)-2-hydroxycyclopentyl)amino)pyridin-2-yl)-4-fluoro-7-formyl-6-((4-methyl-2-oxopiperazin-1-yl)methyl)-3,4-dihydro-2,4-methylene-1,8-naphthyridine-1(21-1)-carboxamide] |
| 0.5 | 1.7 | 0.7 |  |  | COCCNc1cc(NC(=O)N2c3nc(C=O)ccc3C3(NC(=O)c4cnn(C)c4)CC2C3)ncc1C#N [Compound 32, N-(5-cyano-4-((2-methoxyethyl)amino)pyridin-2-yl)-4-(1-methyl-1H-pyrazole-4-carboxamido)-7-formyl-3,4-dihydro-2,4-methylene-1,8-naphthyridine-1(2H)-carboxamide] |
